According to patent EP1004306A2, “Estrogen agonists/antagonists” (Pfizer Products Inc., priority 1998, dated 2000):

How the values were obtained:
[1] = Male osteoporosis model: body weight; type: in vivo, Sprague-Dawley male rats; conditions: 1, 10, 100 µg/kg/day p.o. for 60 days; compared to both sham and ORX controls
Description: (§1) Fifty Sprague-Dawley male rats were sham-operated (n=10) or ORX (n=40) at 10 months of age. Ten rats were autopsied on day 0 as basal controls. ORX rats were treated (daily p.o.) with either vehicle (10% ethanol in water) or (-)Cis-6-phenyl-5-[4-(2-pyrrolidin-1-yl-ethoxy)phenyl]-5,6,7,8-tetrahydronaphthalen-2-ol at 1, 10, or 100 µg/kg/day for 60 days. There were 10 rats per each subgroup. all rats were given subcutaneous injections with 10 mg/kg of calcein (Sigma Chemical Co., St. Louis, MO) on 13 and 3 days before autopsy. • 1) Total serum cholesterol: Total serum cholesterol was determined using a high performance cholesterol colormetic assay (Boehringer Mannheim Biochemicals, Indianapolis, IN). • 2) Prostate weight: The prostate weight was determined immediately at autopsy. • 3) Femoral Bone Mineral Measurements: The right femur from each rat was removed at autopsy and scanned using dual energy x-ray absorptiometry (DEXA, QDR 1000/W, Hologic Inc., Waltham, MA) equipped with "Regional High Resolution Scan" software (Hologic Inc., Waltham, MA). The scan field size is 5.08 x 1.902 cm, resolution was 0.0254 x 0.0127 cm and scan speed is 7.25 mim/second. […]

OVX rats = assay: Prevention of bone loss in OVX rats (female bone mineral density, DEXA); type: in vivo; conditions: Rattus norvegicus, 672 h, oral, read-out: oral ED50, prevents bone loss in OVX rats
From the text: Bone mineral density, a measure of bone mineral content, accounts for greater than 80% of a bone's strength. Loss of bone mineral density with age and/or disease reduces a bone's strength and renders it more prone to fracture. Bone mineral content is accurately measured in people and animals by dual x-ray absorptiometry (DEXA) such that changes as little as 1% can be quantified. We have utilized DEXA to evaluate changes in bone mineral density due to estrogen deficiency following ovariectomy (surgical removal of ovaries) and treatment with vehicle, estradiol (E2), keoxifen (raloxifen), or other estrogen agonists. The purpose of these studies is to evaluate the ability of the compounds of this invention to prevent estrogen deficiency bone loss as measured by DEXA. Female (S-D) rats 4-6 months of age undergo bilateral ovariectomy or sham surgery and allowed to recover from anesthesia. […] (Hologic, Inc. Waltham, MA) and bone mineral density is determined in the distal portion of the femur at a site from 1cm to 2cm from the distal end of the femur using the high resolution software supplied by Hologic. Bone mineral density is determined by dividing the bone mineral content by the bone area of the distal femur. […] Mean bone mineral density is obtained for each animal and statistical differences (p<0.05) from the vehicle-treated ovariectomy and sham-operated group were determined by t test.

adult ORX rats [2] = assay: Male osteoporosis model: total serum cholesterol; type: in vivo, Sprague-Dawley male rats; conditions: for decrease of total serum cholesterol: ORX rats
Description: as §1, with “mim/second. The femoral scan images were analyzed and bone area, bone mineral content (BMC), and bone mineral density (BMD) of whole femora (WF), distal femoral metaphyses (DFM), femoral shaft (FS) were determined according to the method described in H. Z. Ke et al., Droloxifene, a New Estrogen Antagonist/Agonist, Prevents Bone Loss in Ovariectomized Rats. ENDOCRINOLOGY 136;2435-2441, 1995. • 4) Third Lumbar Vertebral Body (LV3) Histomorphometry: The LV3 was removed at autopsy, dissected free of muscle, fixed in 70% ethanol, dehydrated in graded concentrations of ethanol, defatted in acetone, then embedded in methyl methacrylate (Eastman Organic Chemicals, Rochester, NY). Longitudinal sections of LV3 at 4 and 10 µm thickness were cut using Reichert-Jung Polycut S microtome. One 4 µm and one 10 µm sections from each rat will be used for cancellous bone histomorphometry.” for “mim/second.”

adult ORX rats [3] = assay: Male osteoporosis model: prostate weight and histology; type: in vivo, Sprague-Dawley male rats; conditions: 10 and 100 µg/kg/d p.o. for 60 days; compared to ORX controls
Description: as §1

adult ORX rats [4] = assay: Male osteoporosis model: compression test of fifth lumbar vertebral body (LV5); type: in vivo, Sprague-Dawley male rats; conditions: for Maximal Load of LV5: ORX rats, daily p.o. 60 days, p < 0.05 vs. ORX
Description: as §1, with “ORX rats were treated (daily p.o.) with either vehicle (10% ethanol in water) or (-)Cis-6-phenyl-5-[4-(2-pyrrolidin-1-yl-ethoxy)phenyl]-5,6,7,8-tetrahydronaphthalen-2-ol at 1, 10, or 100 µg/kg/day for 60 days.” left out, “mim/second. The femoral scan images were analyzed and bone area, bone mineral content (BMC), and bone mineral density (BMD) of whole femora (WF), distal femoral metaphyses (DFM), femoral shaft (FS) were determined according to the method described in H. Z. Ke et al., Droloxifene, a New Estrogen Antagonist/Agonist, Prevents Bone Loss in Ovariectomized Rats. ENDOCRINOLOGY 136;2435-2441, 1995. • 4) Third Lumbar Vertebral Body (LV3) Histomorphometry: The LV3 was removed at autopsy, dissected free of muscle, fixed in 70% ethanol, dehydrated in graded concentrations of ethanol, defatted in acetone, then embedded in methyl methacrylate (Eastman Organic Chemicals, Rochester, NY).” for “mim/second.”
• 1. […] A compression test was used to determine the mechanical properties of LV5, as described by Mosekilde et al. (Mosekilde, L., Danielsen, C. C., Gasser, J. The effect on vertebral bone mass and strength of long term treatment with antiresorptive agents, human PTH (1-38), and combination therapy, assessed in aged ovariectomized rats. Endocrinol 1994; 134:2126-2134). […] The maximal load and stiffness were calculated from the load-displacement curve.

adult ORX rats [5] = assay: Male osteoporosis model: third lumbar vertebral body (LV3) histomorphometry; type: in vivo, Sprague-Dawley male rats; conditions: for Activation Frequency: ORX rats, daily p.o. 60 days
Description: Fifty Sprague-Dawley male rats were sham-operated (n=10) or ORX (n=40) at 10 months of age. Ten rats were autopsied on day 0 as basal controls. […] There were 10 rats per each subgroup. all rats were given subcutaneous injections with 10 mg/kg of calcein (Sigma Chemical Co., St. Louis, MO) on 13 and 3 days before autopsy. • 1) Total serum cholesterol: Total serum cholesterol was determined using a high performance cholesterol colormetic assay (Boehringer Mannheim Biochemicals, Indianapolis, IN). • 2) Prostate weight: The prostate weight was determined immediately at autopsy. • 3) Femoral Bone Mineral Measurements: The right femur from each rat was removed at autopsy and scanned using dual energy x-ray absorptiometry (DEXA, QDR 1000/W, Hologic Inc., Waltham, MA) equipped with "Regional High Resolution Scan" software (Hologic Inc., Waltham, MA). The scan field size is 5.08 x 1.902 cm, resolution was 0.0254 x 0.0127 cm and scan speed is 7.25 mim/second. The femoral scan images were analyzed and bone area, bone mineral content (BMC), and bone mineral density (BMD) of whole femora (WF), distal femoral metaphyses (DFM), femoral shaft (FS) were determined according to the method described in H. Z. Ke et al., Droloxifene, a New Estrogen Antagonist/Agonist, Prevents Bone Loss in Ovariectomized Rats. ENDOCRINOLOGY 136;2435-2441, 1995. • 4) Third Lumbar Vertebral Body (LV3) Histomorphometry: The LV3 was removed at autopsy, dissected free of muscle, fixed in 70% ethanol, dehydrated in graded concentrations of ethanol, defatted in acetone, then embedded in methyl methacrylate (Eastman Organic Chemicals, Rochester, NY). Longitudinal sections of LV3 at 4 and 10 µm thickness were cut using Reichert-Jung Polycut S microtome. One 4 µm and one 10 µm sections from each rat will be used for cancellous bone histomorphometry. The 4 µm sections were stained with modified Masson's Trichrome stain while the 10 µm sections remained unstained.
A Bioquant OS/2 histomorphometry system (R&M Biometrics, Inc., Nashville, TN) was used for the static and dynamic histomorphometric measurements of the secondary spongiosa of the proximal tibial metaphyses between 1.2 and 3.6 mm distal to the growth plate-epiphyseal junction. The first 1.2 mm of the tibial metaphyseal region need to be omitted in order to restrict measurements to the secondary spongiosa. The 4 µm sections will be used to determine indices related to bone volume, bone structure, and bone resorption, while the 10 µm sections will be used to determine indices related to bone formation and bone turnover.
• 1. Total metaphyseal area (TV, mm^2): metaphyseal area between 1.2 and 3.6 mm distal to the growth plate-epiphyseal junction. • 2. Trabecular bone area (BV, mm^2): total area of trabeculae within TV. • 3. Trabecular bone perimeter (BS, mm): the length of total perimeter of trabeculae. • 4. Trabecular bone volume (BV/TV,%): BV / TV x 100. • 5. Trabecular bone number (TBN,#/mm): 1.199 / 2 x BS / TV. • 6. Trabecular bone thickness (TBT, µm): (2000 / 1.199) x (BV / BS). • 7. Trabecular bone separation (TBS, µm): (2000 x 1.199) x (TV - BV).
• 1. Osteoclast number (OCN, #): total number of osteoclast within total metaphyseal area. • 2. […] (OCP, mm): length of trabecular perimeter covered by osteoclast. • 3. Osteoclast number/mm (OCN/mm, #/mm): OCN / BS. • 4. Percent osteoclast perimeter (%OCP,%): OCP / BS x 100.
• 1. Single-calcein labeled perimeter (SLS, mm): total length of trabecular perimeter labeled with one calcein label. • 2. Double-calcein labeled perimeter (DLS, mm): total length of trabecular perimeter labeled with two calcein labels. • 3. Inter-labeled width (ILW, µm): average distance between two calcein labels. • 4. Percent mineralizing perimeter (PMS,%):(SLS/2 + DLS) / BS x 100. • 5. Mineral apposition rate (MAR, µm/day): ILW / label interval. • 6. Bone formation rate/surface ref. (BFR/BS, µm^2/d/µm): (SLS/2 + DLS) x MAR / BS. • 7. […]

adult ORX rats [6] = assay: Male osteoporosis model: femoral bone mineral measurements (DEXA); type: in vivo, Sprague-Dawley male rats; conditions: 10 or 100 µg/kg/day p.o. for 60 days; compared to ORX controls
Description: as §1

Male Sprague-Dawley rats = assay: Effect on prostate weight; type: in vivo
Description: Male Sprague-Dawley rats, three months of age are administered by subcutaneous injection either vehicle (10% ethanol in water), estradiol (30 µg/kg), testosterone (1 mg/kg) or a compound of formula I daily for 14 days (n=6/group). After 14 days the animals are sacrificed, the prostate is removed, and the wet prostate weight is determined. Mean weight is determined and statistical significance (p<0.05) is determined compared to the vehicle-treated group using Student's t-test.

male rats [7] = conditions: treatment of male rats; cited from earlier work
male rats [8] = conditions: 200 and 400 mg/kg/day; cited from earlier work
[9] = 10 or 100 µg/kg/day p.o. for 60 days, compared to ORX controls

## Oc1ccc2c(c1)CC[C@H](c1ccccc1)[C@@H]2c1ccc(OCCN2CCCC2)cc1 [(-)Cis-6-phenyl-5-[4-(2-pyrrolidin-1-yl-ethoxy)phenyl]-5,6,7,8-tetrahydronaphthalen-2-ol]
[1]
  body weight: dose-dependently decreased
OVX rats
  ED50: ~1 µg/kg
Adult ORX rats [2]; 10 µg/kg/d p.o. for 60 days
  decrease of total serum cholesterol: 46%
Adult ORX rats [2]; 100 µg/kg/d p.o. for 60 days
  decrease of total serum cholesterol: 68%
Adult ORX rats [2]; 1, 10, 100 µg/kg/day p.o. for 60 days, compared to both sham and ORX controls
  total serum cholesterol: dose-dependently decreased
Adult ORX rats [3]
  prostate histology parameters: no effect
  prostate weight: no effect
Adult ORX rats [4]; [9]
  age-related and ORX-induced decreases in maximal load: completely prevented
Adult ORX rats [4]; 10 µg dose group
  Maximal Load of LV5: 393 ± 27 N
Adult ORX rats [4]; 100 µg dose group
  Maximal Load of LV5: 393 ± 25 N
Adult ORX rats [5]; [9]
  age-related and ORX-induced decreases in TBV: completely prevented
  bone resorption: significantly decreased
  bone turnover: significantly decreased
Adult ORX rats [5]; 10 µg dose group
  Activation Frequency: 2.06 ± 0.28 #/year
Adult ORX rats [5]; 100 µg dose group, p < 0.05 vs. ORX
  Activation Frequency: 0.93 ± 0.08 # #/year
Adult ORX rats [5]; dose group printed as 1 mg, p < 0.05 vs. Sham
  Activation Frequency: 2.67 ±0.34 #/year
Adult ORX rats [6]
  age-related and ORX-induced decreases in DFBMD: completely prevented

## C[C@]12CC[C@H]3[C@@H](CCC4=CC(=O)CC[C@@]43C)[C@@H]1CC[C@@H]2O [Testosterone, testosterone]
Male Sprague-Dawley rats; testosterone 1 mg/kg s.c. daily for 14 days
  prostate weight compared to vehicle: no effect

## C[C@]12CC[C@@H]3c4ccc(O)cc4CC[C@H]3[C@@H]1CC[C@@H]2O [estrogen, estradiol]
Male Sprague-Dawley rats; 30 µg/kg s.c. daily for 14 days
  prostate weight compared to vehicle: significantly reduces prostate weight

## O=C(c1ccc(OCCN2CCCCC2)cc1)c1c(-c2ccc(O)cc2)sc2cc(O)ccc12 [raloxifene, 6-hydroxy-2-(4-hydroxyphenyl)-3-[4-(2-piperidinoethoxy)benzoyl] benzo[b] thiophene]
Male rats [7]
  ventral prostate: regression of the ventral prostate

## CC/C(=C(\c1ccccc1)c1ccc(OCCN(C)C)cc1)c1ccccc1 [tamoxifen, 1-(4-β-dimethylaminoethoxyphenyl)-1,2-diphenyl-but-1-ene]
Male rats [8]
  weights of the testes and secondary sex organs: reduces the weights of the testes and secondary sex organs
